Experimental findings from ChEMBL document CHEMBL1909046, “DrugMatrix in vitro pharmacology data” are described below.

Each structure is given as a SMILES string.

The target in the first assay is T1, B2 bradykinin receptor (Homo sapiens, UniProt P30411). Further: in other assays of this panel Not Active means under 50% inhibition at 10 µM.
T1 sequence (P30411 whole entry): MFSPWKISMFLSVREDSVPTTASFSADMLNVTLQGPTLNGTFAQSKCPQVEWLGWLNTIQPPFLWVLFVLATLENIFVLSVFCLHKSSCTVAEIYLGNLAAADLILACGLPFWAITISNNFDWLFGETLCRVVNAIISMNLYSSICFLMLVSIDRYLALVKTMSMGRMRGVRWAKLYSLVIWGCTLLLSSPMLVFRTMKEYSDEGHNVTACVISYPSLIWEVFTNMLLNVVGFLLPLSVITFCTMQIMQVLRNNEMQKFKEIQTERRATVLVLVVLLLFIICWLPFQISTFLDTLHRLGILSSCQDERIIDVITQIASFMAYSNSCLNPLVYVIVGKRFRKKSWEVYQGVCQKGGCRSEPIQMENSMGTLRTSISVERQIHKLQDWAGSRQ
Assay: not given
The note with it: chem-1. In kind it is cell membranes, Membrane.
As to `CC1(C)O[C@@H]2C[C@H]3[C@@H]4C[C@H](F)C5=CC(=O)C=C[C@]5(C)[C@H]4[C@@H](O)C[C@]3(C)[C@]2(C(=O)CO)O1` [FLUNISOLIDE], the IC50 result is given as “Not Active”.
Same read-out and setting: the same measure for `CC1(C)O[C@@H]2C[C@H]3[C@@H]4C[C@H](F)C5=CC(=O)C=C[C@]5(C)[C@@]4(F)[C@@H](O)C[C@]3(C)[C@]2(C(=O)CO)O1` [FLUOCINOLONE ACETONIDE]: “Not Active”.

A further assay deals with Platelet-activating factor receptor (Homo sapiens, UniProt P25105).
Platelet-activating factor receptor, sequence (P25105 whole entry): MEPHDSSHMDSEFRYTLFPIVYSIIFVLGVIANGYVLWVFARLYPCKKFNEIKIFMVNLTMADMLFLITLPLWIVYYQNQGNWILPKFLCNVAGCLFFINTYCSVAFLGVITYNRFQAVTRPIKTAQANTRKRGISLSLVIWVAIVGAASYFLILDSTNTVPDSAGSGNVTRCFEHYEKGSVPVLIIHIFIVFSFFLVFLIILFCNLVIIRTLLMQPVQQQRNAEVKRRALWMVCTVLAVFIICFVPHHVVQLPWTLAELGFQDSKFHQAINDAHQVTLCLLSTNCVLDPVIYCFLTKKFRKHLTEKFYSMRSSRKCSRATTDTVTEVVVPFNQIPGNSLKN
Assay: not given
In kind it is tissue-based.
Settings: not given
Turning to `CC1(C)O[C@@H]2C[C@H]3[C@@H]4C[C@H](F)C5=CC(=O)C=C[C@]5(C)[C@H]4[C@@H](O)C[C@]3(C)[C@]2(C(=O)CO)O1` [FLUNISOLIDE], the IC50 result is “Not Active”.
`CC1(C)O[C@@H]2C[C@H]3[C@@H]4C[C@H](F)C5=CC(=O)C=C[C@]5(C)[C@@]4(F)[C@@H](O)C[C@]3(C)[C@]2(C(=O)CO)O1` [FLUOCINOLONE ACETONIDE]: the IC50 result is given as “Not Active”.

The target of another assay is T2, C-C chemokine receptor type 4 (Homo sapiens, UniProt P51679). Further: in other assays of this panel Not Active means under 50% inhibition at 10 µM.
T2 sequence (P51679 whole entry): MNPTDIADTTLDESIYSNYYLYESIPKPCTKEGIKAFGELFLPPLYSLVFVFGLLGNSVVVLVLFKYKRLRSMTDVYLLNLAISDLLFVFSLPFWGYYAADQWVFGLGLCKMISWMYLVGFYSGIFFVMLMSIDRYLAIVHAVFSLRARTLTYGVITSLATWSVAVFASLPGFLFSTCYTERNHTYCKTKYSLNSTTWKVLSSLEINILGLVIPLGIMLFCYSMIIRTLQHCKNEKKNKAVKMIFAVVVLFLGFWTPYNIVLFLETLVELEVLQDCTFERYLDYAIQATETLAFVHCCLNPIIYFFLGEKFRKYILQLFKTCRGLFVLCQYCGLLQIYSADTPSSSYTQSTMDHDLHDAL
Assay: not given
In kind it is cell membranes, Membrane. The note with it: chem-1.
With `CC1(C)O[C@@H]2C[C@H]3[C@@H]4C[C@H](F)C5=CC(=O)C=C[C@]5(C)[C@H]4[C@@H](O)C[C@]3(C)[C@]2(C(=O)CO)O1` [FLUNISOLIDE], the IC50 result is on record as “Not Active”.
`CC1(C)O[C@@H]2C[C@H]3[C@@H]4C[C@H](F)C5=CC(=O)C=C[C@]5(C)[C@@]4(F)[C@@H](O)C[C@]3(C)[C@]2(C(=O)CO)O1` [FLUOCINOLONE ACETONIDE]: the IC50 entry is “Not Active”.

In the next assay the target is T3, Angiotensin-converting enzyme (Oryctolagus cuniculus, UniProt P12822).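 Further: enzymatic inhibition of angiotensin-converting enzyme measured with FAPGG as the substrate; in other assays of this panel Not Active means under 50% inhibition at 10 µM.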
T3 sequence (P12822 whole entry): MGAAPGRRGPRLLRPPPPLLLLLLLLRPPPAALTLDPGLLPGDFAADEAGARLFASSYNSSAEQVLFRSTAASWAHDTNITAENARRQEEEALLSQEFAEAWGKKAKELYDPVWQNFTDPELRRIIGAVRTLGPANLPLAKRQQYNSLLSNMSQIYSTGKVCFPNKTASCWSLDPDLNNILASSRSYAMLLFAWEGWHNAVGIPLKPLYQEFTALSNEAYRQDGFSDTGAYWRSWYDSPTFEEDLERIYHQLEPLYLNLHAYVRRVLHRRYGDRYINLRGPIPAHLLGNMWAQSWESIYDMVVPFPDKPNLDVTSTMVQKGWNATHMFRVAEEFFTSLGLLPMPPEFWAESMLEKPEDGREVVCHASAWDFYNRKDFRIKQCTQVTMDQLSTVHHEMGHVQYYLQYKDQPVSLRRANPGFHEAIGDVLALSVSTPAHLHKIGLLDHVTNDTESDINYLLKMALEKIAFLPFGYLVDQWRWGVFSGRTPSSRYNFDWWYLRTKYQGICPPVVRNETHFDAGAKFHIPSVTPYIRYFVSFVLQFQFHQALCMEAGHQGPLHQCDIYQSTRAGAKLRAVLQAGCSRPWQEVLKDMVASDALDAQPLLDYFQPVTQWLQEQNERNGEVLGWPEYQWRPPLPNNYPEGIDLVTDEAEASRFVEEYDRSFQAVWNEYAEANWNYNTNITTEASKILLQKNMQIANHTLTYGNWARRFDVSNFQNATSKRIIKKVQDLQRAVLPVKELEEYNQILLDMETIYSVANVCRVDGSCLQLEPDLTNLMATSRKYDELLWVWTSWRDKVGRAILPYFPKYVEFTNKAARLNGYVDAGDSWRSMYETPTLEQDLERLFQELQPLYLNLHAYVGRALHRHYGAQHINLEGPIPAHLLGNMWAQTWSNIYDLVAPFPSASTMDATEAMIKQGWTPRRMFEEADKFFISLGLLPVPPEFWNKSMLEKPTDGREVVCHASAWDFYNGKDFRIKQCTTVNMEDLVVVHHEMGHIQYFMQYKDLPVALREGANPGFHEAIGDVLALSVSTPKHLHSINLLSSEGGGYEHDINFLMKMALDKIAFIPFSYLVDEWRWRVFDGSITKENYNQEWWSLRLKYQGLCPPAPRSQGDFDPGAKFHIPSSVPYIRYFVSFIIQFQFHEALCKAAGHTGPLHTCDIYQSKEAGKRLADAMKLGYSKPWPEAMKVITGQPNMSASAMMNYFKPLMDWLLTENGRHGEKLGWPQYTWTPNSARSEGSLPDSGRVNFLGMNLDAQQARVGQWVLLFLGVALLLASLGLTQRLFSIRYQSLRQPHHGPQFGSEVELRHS
Assay: not given
It is filed as tissue-based, Lung.
Settings: not given
With `CC1(C)O[C@@H]2C[C@H]3[C@@H]4C[C@H](F)C5=CC(=O)C=C[C@]5(C)[C@H]4[C@@H](O)C[C@]3(C)[C@]2(C(=O)CO)O1` [FLUNISOLIDE], the IC50 entry is recorded as “Not Active”.
On the same count and under the same terms, the value for `CC1(C)O[C@@H]2C[C@H]3[C@@H]4C[C@H](F)C5=CC(=O)C=C[C@]5(C)[C@@]4(F)[C@@H](O)C[C@]3(C)[C@]2(C(=O)CO)O1` [FLUOCINOLONE ACETONIDE] was “Not Active”.

The target of the next assay is Mitogen-activated protein kinase 3 (Homo sapiens, UniProt P27361). As to the kind of experiment: DRUGMATRIX: Protein Serine/Threonine Kinase, ERK1 enzyme inhibition (substrate: Myelin Basic Protein). More on the design: species or system Escherichia coli. The note with it: Not Active = under 50% inhibition at 10 µM.
Mitogen-activated protein kinase 3, sequence (P27361 whole entry): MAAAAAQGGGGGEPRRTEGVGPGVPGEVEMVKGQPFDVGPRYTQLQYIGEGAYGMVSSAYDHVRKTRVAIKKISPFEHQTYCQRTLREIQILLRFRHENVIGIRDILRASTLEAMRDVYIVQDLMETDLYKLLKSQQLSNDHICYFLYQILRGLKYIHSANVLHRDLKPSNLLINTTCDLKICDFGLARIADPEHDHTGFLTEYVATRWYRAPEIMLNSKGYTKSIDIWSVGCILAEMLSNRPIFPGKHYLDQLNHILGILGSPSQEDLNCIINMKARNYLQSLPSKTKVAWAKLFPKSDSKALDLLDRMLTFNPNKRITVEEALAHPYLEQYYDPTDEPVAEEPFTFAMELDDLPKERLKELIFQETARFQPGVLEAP
Take `CC1(C)O[C@@H]2C[C@H]3[C@@H]4C[C@H](F)C5=CC(=O)C=C[C@]5(C)[C@H]4[C@@H](O)C[C@]3(C)[C@]2(C(=O)CO)O1` [FLUNISOLIDE]: the IC50 result was “Not Active”.
Take `CC1(C)O[C@@H]2C[C@H]3[C@@H]4C[C@H](F)C5=CC(=O)C=C[C@]5(C)[C@@]4(F)[C@@H](O)C[C@]3(C)[C@]2(C(=O)CO)O1` [FLUOCINOLONE ACETONIDE]: the IC50 entry is “Not Active”.

Test system in another assay: not listed separately
Briefly: DRUGMATRIX: Leukotriene, BLT (LTB4) radioligand binding (ligand: [3H]LTB4). The note with it: u-937; Not Active = under 50% inhibition at 10 µM. In kind it is cell membranes, Membrane.
Take `CC1(C)O[C@@H]2C[C@H]3[C@@H]4C[C@H](F)C5=CC(=O)C=C[C@]5(C)[C@H]4[C@@H](O)C[C@]3(C)[C@]2(C(=O)CO)O1` [FLUNISOLIDE]: the IC50 result is recorded as “Not Active” and the Ki entry is on record as “Not Active”.
In the case of `CC1(C)O[C@@H]2C[C@H]3[C@@H]4C[C@H](F)C5=CC(=O)C=C[C@]5(C)[C@@]4(F)[C@@H](O)C[C@]3(C)[C@]2(C(=O)CO)O1` [FLUOCINOLONE ACETONIDE], the IC50 result is “Not Active” and the Ki entry is given as “Not Active”.

Test system in another assay: not listed separately
As to the kind of experiment: DRUGMATRIX: Sodium/nucleoside co-transporter radioligand binding (ligand: nitrobenzylthioinosine). In kind it is cell membranes, Cavia porcellus, Dunkin-Hartley, Cerebral cortex, Membrane. The note with it: Not Active = under 50% inhibition at 10 µM.
In the case of `CC1(C)O[C@@H]2C[C@H]3[C@@H]4C[C@H](F)C5=CC(=O)C=C[C@]5(C)[C@H]4[C@@H](O)C[C@]3(C)[C@]2(C(=O)CO)O1` [FLUNISOLIDE], the IC50 result is recorded as “Not Active” and the Ki entry is “Not Active”.
For the compound `CC1(C)O[C@@H]2C[C@H]3[C@@H]4C[C@H](F)C5=CC(=O)C=C[C@]5(C)[C@@]4(F)[C@@H](O)C[C@]3(C)[C@]2(C(=O)CO)O1` [FLUOCINOLONE ACETONIDE], the IC50 result is given as “Not Active” and the Ki result is “Not Active”.

Another assay deals with T4, Type-2 angiotensin II receptor (Homo sapiens, UniProt P50052).
T4 sequence (P50052 whole entry): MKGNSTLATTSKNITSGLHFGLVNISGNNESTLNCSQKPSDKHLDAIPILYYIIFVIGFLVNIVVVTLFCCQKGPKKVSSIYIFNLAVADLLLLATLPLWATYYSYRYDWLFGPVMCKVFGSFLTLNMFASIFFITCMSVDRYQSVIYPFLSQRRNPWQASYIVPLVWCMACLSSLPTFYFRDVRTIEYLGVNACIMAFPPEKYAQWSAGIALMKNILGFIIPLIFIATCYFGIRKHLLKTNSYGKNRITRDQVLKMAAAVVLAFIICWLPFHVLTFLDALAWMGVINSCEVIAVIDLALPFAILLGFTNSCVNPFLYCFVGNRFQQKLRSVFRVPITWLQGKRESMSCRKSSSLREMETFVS
Assay: not given
It is filed as cell-based. The note with it: cho-k1.
As for `CC1(C)O[C@@H]2C[C@H]3[C@@H]4C[C@H](F)C5=CC(=O)C=C[C@]5(C)[C@H]4[C@@H](O)C[C@]3(C)[C@]2(C(=O)CO)O1` [FLUNISOLIDE], the IC50 entry is reported as “Not Active”.
Same read-out and setting: the value for `CC1(C)O[C@@H]2C[C@H]3[C@@H]4C[C@H](F)C5=CC(=O)C=C[C@]5(C)[C@@]4(F)[C@@H](O)C[C@]3(C)[C@]2(C(=O)CO)O1` [FLUOCINOLONE ACETONIDE] was “Not Active”.

In another assay the target is Aldo-keto reductase family 1 member B1 (Rattus norvegicus, UniProt P07943). Briefly: biochemical. In kind it is tissue-based, Lens of camera-type eye.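 Further: inhibition of aldose reductase enzyme activity, measured with DL-glyceraldehyde as the substrate; in other assays of this panel Not Active means under 50% inhibition at 10 µM.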
Settings: not given
Regarding `CC1(C)O[C@@H]2C[C@H]3[C@@H]4C[C@H](F)C5=CC(=O)C=C[C@]5(C)[C@H]4[C@@H](O)C[C@]3(C)[C@]2(C(=O)CO)O1` [FLUNISOLIDE], the IC50 result is listed as “Not Active”.
On to `CC1(C)O[C@@H]2C[C@H]3[C@@H]4C[C@H](F)C5=CC(=O)C=C[C@]5(C)[C@@]4(F)[C@@H](O)C[C@]3(C)[C@]2(C(=O)CO)O1` [FLUOCINOLONE ACETONIDE], for which the IC50 result is recorded as “Not Active”.
